This is an account of results in patent US6509359B1, “Pyrrolidin-2-one compounds and their use as neuraminidase inhibitors” (priority 1997, dated 2003).

Data set [1] deals with influenza neuraminidase (N2) (Influenza A virus, UniProt P06820). As to the kind of experiment: biochemical. The data set is classed as biochemical, influenza virus Type A.
Data set [2] deals with Influenza NA Type B B/Lee (Influenza B virus, UniProt P03474). The data set can be described thus: Inhibition of influenza neuraminidase (B/Lee). Format: biochemical.
The test system of data set [3] is HA. Conditions: cited from earlier work.
For data set [4] the following is noted: cited from earlier work.
For data set [5], the target named is neuraminidase from the H1N9 strain of influenza (Influenza A virus, UniProt P03472). As to the kind of experiment: biochemical.
A short description of data set [6]: Oral bioavailability. Format: in vivo.

In general, IC50 refers to the concentration that inhibits the measured activity by half. The low end stands for greater potency in that assay, the high end for weaker potency in that assay. As for `CCC(CC)Nc1cc(C(=O)O)ccc1N1C(=O)CCC1(CN)CO` (stereo not shown) [Compound B], in data set [1], the “Effectiveness relative to example 8 for the inhibition of influenza neuraminidase (N2)” value is listed as “approximately twice as effective as example 8” and the IC50 came to 0.04 µM. The compound also registered an IC50 in data set [2] of 49 µM.

On to `CC(=O)N[C@H]1[C@H]([C@H](O)[C@H](O)CO)OC(C(=O)O)=C[C@@H]1O` [DANA, 2-deoxy-2,3-didehydro-N-acetylneuraminic acid], for which the Inhibition in vitro result in data set [3] is recorded as “inhibit HA in vitro”. Moreover, the Activity in vivo result in data set [4] is “inactive in vivo”.

What is called melting point is the temperature of the solid-liquid transition. For `O=C(O)c1ccc(N2CCCC2=O)cc1` [Example 1, 1-(4-Carboxyphenyl)pyrrolidin-2-one], the melting point was in the range of 244 to 246 °C. For the same compound, the IC50 in data set [5] is more than 7000 µM.

`NCC1CCC(=O)N1c1ccc(C(=O)O)cc1N=C(N)N` (stereo not shown) [Example 4, 1-1-{2-{[(Amino)(imino)methyl]amino}-4-carboxyphenyl}-5-(aminomethyl)pyrrolidin-2-one] gave an IC50 in data set [5] of 2600 µM.

Consider `O=C(O)c1ccc(N2C(=O)CCC2(CO)CO)cc1` [Example 5, 1-(4-Carboxyphenyl)-5,5-bis-(hydroxymethyl)pyrrolidin-2-one], for which the IC50 in data set [5] is 700 µM.

Regarding `N=C(N)Nc1cc(C(=O)O)ccc1N1C(=O)CCC1(CO)CO` [Example 6, 1-{2-{[(Amino)(imino)methyl]amino}-4-carboxyphenyl}-5,5-bis-(hydroxymethyl)-pyrrolidin-2-one], in data set [5], half-maximal inhibition (IC50) was put at 5 µM.

The compound `CCC(CC)Nc1cc(C(=O)O)ccc1N1CCCC1=O` [Example 7, 1-[4-Carboxy-2-(3-pentylamino)phenyl]pyrrolidin-2-one] yielded a 50% inhibitory concentration (IC50) in data set [5] of 220 µM.

For `CCC(CC)Nc1cc(C(=O)O)ccc1N1C(=O)CCC1(CO)CO` [Example 8, 1-[4-Carboxy-2-(3-pentylamino)phenyl]-5,5-bis-(hydroxymethyl)pyrrolidin-2-one], the IC50 worked out at 0.071 µM in data set [1], 93 µM in data set [2] and 0.048 µM in data set [5]. Also, the Oral bioavailability entry in data set [6] was “orally bioavailable”.

With `CCCC(CC)Nc1cc(C(=O)O)ccc1N1C(=O)CCC1(CO)CO` (stereo not shown) [Example 9, 1-[4-Carboxy-2-(3-hexylamino)phenyl]-5,5-bis-(hydroxymethyl)pyrrolidin-2-one], it took 116 µM to reach half-maximal inhibition in data set [5] (IC50).

Turning to `CCCC(CCC)Nc1cc(C(=O)O)ccc1N1C(=O)CCC1(CO)CO` [Example 10, 1-[4-Carboxy-2-(4-heptylamino)phenyl]-5,5-bis-(hydroxymethyl)pyrrolidin-2-one], the results for the IC50 in data set [1] and in data set [5] were 8.1 µM and 5.5 µM, respectively.

Take `CCC(CC)CNc1cc(C(=O)O)ccc1N1C(=O)CCC1(CO)CO` [Example 11, 1-{4-Carboxy-2-[3-pentyl)methylaminolphenyl}-5,5-bis-(hydroxymethyl)pyrrolidin-2-one.]: in data set [1], the midpoint of inhibition, the IC50, lay at 3.5 µM.

`CCCNc1cc(C(=O)O)ccc1N1C(=O)CCC1(CO)CO` [Example 12]: in data set [1], the IC50 came to 15.5 µM.

Compound `CCC(=O)Nc1cc(C(=O)O)ccc1N1C(=O)CCC1(CO)CO` [Example 14, 1-[4-Carboxy-2-(ethylcarbonylamino)phenyl]-5,5-bis(hydroxymethyl)pyrrolidin-2-one] returned an IC50 in data set [1] of 1.5 µM.

`CCC(C)C(=O)Nc1cc(C(=O)O)ccc1N1C(=O)CCC1(CO)CO` (stereo not shown) [Example 15, 1-{[4-Carboxy-2-(1-methylpropyl)carbonylamino]pheny}-5,5-bis(hydroxymethyl)-pyrrolidin-2-one]: in data set [1], the IC50 worked out at 0.18 µM.

Compound `CCC(CC)C(=O)Nc1cc(C(=O)O)ccc1N1C(=O)CCC1(CO)CO` [Example 16] had an IC50 in data set [1] of 0.82 µM.

Consider `CCC(C)C(=O)Nc1cc(C(=O)O)ccc1N1C(=O)CCC1(CN)CO` (stereo not shown) [Example 17, 5-Aminomethyl-1-{[4-carboxy-2-(1-methylpropyl)carbonylamino]phenyl}-5-hydroxymethylpyrrolidin-2-one], for which the IC50 in data set [1] was 6 µM.

The compound `CCC(CC)Nc1cc(C(=O)O)ccc1N1C(=O)CCC1(CO)CCO` (stereo not shown) [Example 18, 1-[4-Carboxy-2-(1-ethylpropylamino)phenyl]-5-hydroxyethyl-5-hydroxymethyl-pyrrolidin-2-one] showed an IC50 in data set [1] of 184 µM.
